Measurements reported in US20160290995A1, “METHODS OF SELECTING AKT AGONISTS OR ANTAGONISTS” (OREGON HEALTH & SCIENCE UNIVERSITY, priority 2015, published 2016).
Read-outs that look alike come from different tables or passages of the source.

Assays:
Akt [1] = test: FOXO1-clover reporter live-cell imaging (relative nuclear intensity) in C3H10T1/2 fibroblasts; type: cell-based, mouse; settings: for effect of inhibitor on IGF-I-mediated reporter localization: 90 min, graded inhibitor concentrations; for IC50: Mus musculus, C3H 10T1/2; for mean rate of nuclear import of FOXO1-clover: after R3-IGF-I 250 pM; for change of nuclear levels of the reporter on growth factor addition (result in words): different concentrations; for change of nuclear levels of the reporter on growth factor addition (result in words) / time to half-maximal translocation/accumulation of reporter in the cytoplasm after onset of incubation / time to maximal translocation values: cells pre-incubated in SFM; for time to half-maximal translocation/accumulation of reporter in the cytoplasm after onset of incubation / time to maximal translocation values: different growth factor concentrations
Method: (§1) Cells were imaged every 2-min for 60 min. At the end of the incubation period whole cell lysates were collected.
10T1/2 cells and C2 myoblasts were incubated in serum-free medium for 90 min. R3-IGF-I was added in supplemented FluoroBrite [0 to 500 pM], and cells were imaged every 2-min for 60 min. […]
(§2) Live cell imaging was performed using an EVOS FL Auto microscope with a stage top incubator that was maintained at 37° C. and 95% humidified air with 5% CO2. Images were collected at 100× magnification at different intervals, using a 10× Fluorite objective (numerical aperture: 0.3), and a GFP light cube (excitation peak, 472/22 nm; emission peak, 510/42 nm). Images were analyzed with the NIH ImageJ plug-in Fiji (NIH, Bethesda, Md.), after using the Polynomial Fit plug-in to subtract background fluorescence, the Stack Reg (rigid registration) plug-in to register images, and the Gaussian Blur plug-in (at 2-pixels) to average fluorescence across pixels. Individual cells were manually tracked using the mTrackJ plug-in (Meijering E et al, Methods Enzymol 504, 183-200 (2012); incorporated by reference herein) by selecting a single point in the nucleus. Cells that died, divided, or migrated out of frame were excluded from analysis. In experiments performed in 6-well dishes, two locations on opposite sides of the well were imaged, while for studies using 24-well plates, one central location was imaged. In each location, at least 25 cells were tracked.

Akt [2] = test: FoxO1-clover reporter live-cell imaging in HeLa cells; type: cell-based; settings: IGF-I 500 pM, insulin 1400 pM, EGF 4.2 nM, PDGF-BB 4.1 nM, PDGF-AA 3.5 nM; 90 min
Method: HeLa cells (ATCC #CCL2) were incubated in DMEM supplemented with 10% FBS. Cells were transduced at 50% of confluent density with concentrated FoxO1-clover virus in the presence of polybrene (6 μg/ml), as described (Gross S M and Rotwein P, Skelet Muscle 3, doi10.1186/2044-5040-3-10 (2013); incorporated by reference herein), and sorted by fluorescence intensity with a Becton-Dickinson Influx cell sorter. Reporter expression was stable for at least 10 passages in each sorted cell population. C3H10T1/2 mouse embryonic fibroblasts (ATC #CCL226) stably expressing FoxO1-clover (Gross and Rotwein, 2015), were maintained under selection with puromycin (2 μg/ml).
as §2, with “tracked. The relative nuclear intensity of the FoxO1-clover reporter protein was calculated in each cell by normalizing the values measured at time 0 to 100%. This corresponded to incubation in serum-free medium (SFM). In graphs in which single cell responses were plotted with C3H10T1/2 cells, we applied a time-weighted smoothing filter to each data point. This consisted of averaging contributions from the two prior and two succeeding times (adding 50% of the prior or succeeding time point, and 25% of the next succeeding or earlier time point to 100% of the value of the time point in question, and then dividing by 2.5).” for “tracked.”
Short-term responses to individual growth factors: C3H10T1/2 cells were incubated in serum-free Fluorobrite medium plus 2 mM L-glutamine and 0.1% bovine serum albumin for 90 min. Different concentrations of growth factors were added and images were collected every 2 min for 90 min. Growth factors included insulin [0 to 1400 pM], EGF [0 to 4.2 nM], PDGF-AA [0 to 1400 pM], or PDGF-BB [0 to 104 pM]. HeLa cells were incubated in serum-free Fluorobrite medium for 120 min and then incubated with insulin [1400 pM], EGF [4.2 nM], PDGF-AA [3.5 nM], PDGF-BB [4.1 nM], or R3-486 IGF-I [500 pM], with images collected every 2 min.

Akt phosphorylation = test: Immunoblotting of Akt and PRAS40 phosphorylation in 10T1/2 whole cell lysates; type: cell-based, mouse; settings: for time course of Akt and PRAS40 phosphorylation (result in words): insulin 1400 pM, EGF 4.2 nM, PDGF-AA 1400 pM, PDGF-BB 104 pM, up to 90 min
Method: as §1
Whole cell protein lysates were prepared as described (Mukherjee A and Rotwein P, Mol Endorcrinol 22, 1238-1250 (2008); incorporated by reference herein). Protein aliquots (15 μg/lane) were resolved by SDS-PAGE (12% separating gel), followed by transfer to Immobilon-FL membranes, and blocking with 50% AquaBlock solution. Membranes were incubated sequentially with primary and secondary antibodies, as described (Mukherjee and Rotwein, 2008 supra). Primary antibodies were incubated for 12-16 hr at a 1:1000 dilution, except for α-tubulin (1:10,000), and secondary antibodies for 90 min at 1:5000. Images were captured using the LiCoR Odyssey and version 3.0 analysis software (Lincoln, Nebr.).
C3H10T1/2 cells stably expressing FoxO1-clover were incubated in SFM with Fluorobrite imaging media for 90 min followed by addition of insulin [1400 pM], EGF [4.2 nM], PDGF-AA [1400 pM], or PDGF BB [104 pM]. Whole protein lysates were collected after 0, 5, 15, 30, 60, and 90 min of growth factor exposure by washing cells twice with cold PBS and addition of RIPA buffer containing protease and phosphatase inhibitors (Mukherjee A and Rotwein P, Mol Endocrinol 22, 1238-1250 (2008); incorporated by reference herein). Protein aliquots (12.5 μg/lane) were resolved by SDS PAGE (10% separating gels), and transferred onto Immobilon-FL membranes. Membranes were incubated in 50% AquaBlock for 60 min, followed by addition of primary antibodies at 1:1000 dilution for 16 hr, and secondary antibodies for 90 min at 1:5000. Images were collected using the LiCoR Odyssey and analysis software version 3.0 (Lincoln, Nebr.).

[3] = two highest concentrations of PDGF-AA
[4] = higher concentrations of PDGF-BB
[5] = lower growth factor concentrations

## C[C@]1(O)C[C@@H](c2nc(-c3ccc4ccc(-c5ccccc5)nc4c3)c3c(N)nccn32)C1 [Linsitinib, reference compound]
Akt [1]; IGF-I 500 pM
  effect of inhibitor on IGF-I-mediated reporter localization: dose-dependent decline in maximal IGF-I-mediated cytoplasmic localization of the FoxO1-clover reporter molecule

## Oc1cccc(-c2nc(N3CCOCC3)c3oc4ncccc4c3n2)c1 [PI103, reference compound]
Akt [1]; 60 min after PI103 500 nM, following 60 min IGF-I 250 pM, scaled 0% = IGF-I, 100% = leptomycin
  fraction of reporter in the nucleus: ~56%
Akt [1]; IGF-I 500 pM
  effect of inhibitor on IGF-I-mediated reporter localization: dose-dependent decline in maximal IGF-I-mediated cytoplasmic localization of the FoxO1-clover reporter molecule
Akt [1]; Lepto plus PI103 vs Lepto alone
  enhancement of mean rate of nuclear import by inhibition of PI3-kinase: up to 4 fold
Akt [1]; IGF-I 500 pM, read-out: IC50 for IGF-I-mediated signaling
  IC50: 50 to 200 nM
Akt [1]; PDGF-BB 830 pM, read-out: IC50 for PDGF-BB-mediated signaling
  IC50: 20 to 50 nM
Akt [1]; PI103 500 nM added to cells in SFM
  increase in nuclear localization of the reporter compared with serum-free medium alone: ~10%
Akt [1]; PI103 500 nM after IGF-I 250 pM
  time after addition of PI103 at which N/C=1: ~15 min
Akt [1]; leptomycin B 100 nM plus PI103 500 nM
  mean rate of nuclear import of FOXO1-clover: > 12 % per min

## CCC(=C/[C@H](C)C/C=C/C(C)=C/[C@@H](C)C(=O)[C@@H](C)[C@H](O)[C@@H](C)C/C(C)=C/C(=O)O)/C=C/[C@@H]1OC(=O)C=C[C@@H]1C [leptomycin B, reference compound]
Akt [1]; leptomycin B 100 nM after 60 min IGF-I 25 pM
  half-maximal time of nuclear appearance of reporter after leptomycin B: ~5 min
Akt [1]; leptomycin B 100 nM after 60 min IGF-I 250 pM
  half-maximal time of nuclear appearance of reporter after leptomycin B: ~25 min
Akt [1]; leptomycin B 100 nM after PI103 in SFM
  change of nuclear intensity of the reporter after subsequent leptomycin: nearly a doubling
Akt [1]; leptomycin B 100 nM alone, single exponential fit of individual cells
  mean rate of nuclear import of FOXO1-clover: ~3 % per min

## EGF: mouse EGF (Gibco-Life Technologies), peptide growth factor (NSYPGCPSSYDGYCLNGGVCMHIESLDSYTCNCVIGYSGDRCQTRDLRWWELR; Epidermal growth factor; UniProt P01132 977-1029, looked up)
Akt [1]; population level
  change of nuclear levels of the reporter on growth factor addition (result in words): rapid, dose-dependent, and transient decreases in nuclear levels of the FoxO1-clover reporter protein
  time to half-maximal translocation/accumulation of reporter in the cytoplasm after onset of incubation: 6 to 9 min
  time to maximal translocation values: ~13 min
Akt [1]; population level, after EGF treatment
  time by which signal intensity was waning: 45 min
Akt [1]; sequential exposures, IGF-I 50 or 500 pM with 90-min washout, EGF 4.2 nM after 60 min EGF
  response to a second treatment with the same growth factor: minimally promoted FoxO1-clover reporter translocation out of the nucleus
Akt [2]
  signaling response in HeLa FoxO1-clover cells (result in words): transient responses
Akt phosphorylation
  time course of Akt and PRAS40 phosphorylation (result in words): Similarly transient effects

## PDGF-AA: recombinant human PDGF-AA (Thermo Scientific); binds almost exclusively to the PDGF-α receptor
Akt [1]; population level
  change of nuclear levels of the reporter on growth factor addition (result in words): rapid, dose-dependent decreases in nuclear levels of FoxO1-clover
  time to half-maximal translocation/accumulation of reporter in the cytoplasm after onset of incubation: 6 to 10 min
  time to maximal translocation values: ~14 min
Akt [1]; over the next 40 min after the peak
  decline of population response from peak values: 50-75%
Akt [1]; [3]
  fraction of cells demonstrating sustained effects: 10-15%
  fraction of cells showing no or minimal responses: 25-30%
Akt [2]
  signaling response in HeLa FoxO1-clover cells (result in words): ineffective
Akt phosphorylation
  time course of Akt and PRAS40 phosphorylation (result in words): Similarly brief effects

## PDGF-BB: recombinant human PDGF-BB (Invitrogen); binds PDGF-α and PDGF-β receptors
Akt [1]; [4]
  duration of maintained cytoplasmic localization of the reporter: at least 90 min
  time to half-maximal accumulation of FoxO1-clover in the cytoplasm: < 5 min
Akt [1]; [5]
  time to half-maximal accumulation of FoxO1-clover in the cytoplasm: 8 to 9 min
  time to maximal values: ~14 min
Akt [1]; peak concentrations of PDGF-BB
  fraction of cells showing large and sustained signaling responses: 90-99%
Akt [1]; serum-starved cells, 60 min, 10% FBS, PDGF-BB 206 pM, R3-IGF-I 1 nM, BMP-2 15 nM
  subcellular localization of FOXO1-clover (result in words): rapid and sustained translocation of the reporter from the nucleus to the cytoplasm
Akt [2]
  signaling response in HeLa FoxO1-clover cells (result in words): transient responses
Akt phosphorylation; 60 min, 10% FBS, PDGF-BB 206 pM, R3-IGF-I 1 nM, BMP-2 15 nM
  Akt phosphorylation (pAkt T308 immunoblot): stimulation of Akt phosphorylation
Akt phosphorylation
  time course of Akt and PRAS40 phosphorylation (result in words): Similarly sustained signaling
